Laboratory results taken from US20130331345A1, “PUERARIN HYDRATES, PREPARATION METHODS AND USES THEREOF” (priority 2010, published 2013).

Legend:
Long-term stability test = type: physicochemical
[1] = system: cerebral ischemia-reperfusion; experiment: Effects on cerebral ischemia-reperfusion in rats (NO, NOS, MDA, SOD in brain tissue); type: in vivo, Wistar male rats; conditions: rats after ischemia-reperfusion, 400 mg/kg intragastric twice per day, monohydrate
Method: 36 Wistar male rats, body weight 250-300 g, were randomly divided into 3 groups: sham operation group, ischemia-reperfusion group, and the present invention drug group, 12 rats per group. The rats of the present invention drug group were intragastrically administered with physiological saline suspension of puerarin monohydrate (prepared by method of Example 1) in a dose of 400 mg/kg, volume of 2 ml, twice per day, for consecutive 7 days, and cerebral ischemia operation was performed 60 min after the last administration; the rats of sham operation group and the ischemia-reperfusion group were administered separately with isometric physiological saline 2 ml.
The rats were anesthetized with 10% chloral hydrate (3.5 ml/kg) by intraperitoneal injection, fixed at supine position, and molded by a modified Zea Longa suture method referring to document (Journal of Shanghai Jiaotong University (medical Science), 2007, 27(10): 1218-1222); suture was inserted only 10 mm in sham operation group, and the other steps were the same as the model groups. […] After successful modeling, the rats of the present invention drug group were administered twice per day in the same dose as above, while those of the sham operation group and the ischemia-reperfusion group were administered isometric physiological saline 2 ml. Sutures were drawn out 2 hours after modeling, the rats were executed 24 hours after reperfusion, and their brain weights were measured rapidly. 10% brain tissue homogenates were prepared at low temperature with physiological saline, centrifuged under 3000 r/min for 10 min at low temperature, the deposit was discarded, and the supernatant was taken and measured with commercial kits of SOD, MDA, NO, NOS according to their specifications to determine contents or activities of SOD, MDA, NO, NOS.

[2] = Accelerated stability test (40° C., RH75%), sealed in penicillin bottles; type: physicochemical; conditions: accelerated, 40° C.
Method: (§1) The sample of the puerarin hydrate above (prepared by method of Example 1) and anhydrous puerarin (anhydrous puerarin was prepared by: drying the hydrate as prepared in Example 1 at 90-105° C. in the presence of phosphorus pentoxide under vacuum for 24-72 hours or more to obtain an anhydrous puerarin, and the water content of anhydrous puerarin was usually lower than 1.0% as measured by Karl Fisher method) were sealed in penicillin bottles to perform accelerated stability test (chromatography conditions: chromatography column: C18 (150 mm×4.6 mm, 5 μm); mobile phase: 0.1% citric acid solution-methanol (75:25); flow rate: 1 ml/min; temperature: room temperature; detection wavelength: 250 nm). […] Hygroscopicity test was performed according to the Pharmacopoeia of the People's Republic of China: about 5 g of anhydrous puerarin and the crystalline hydrate of the present invention were taken, placed in dry watch glasses with constant weight, weighed precisely. Samples were taken separately at 0 h and 48 h of the test at 25° C. and relative humidity of 75%, and hygroscopicity weight gain percentages were calculated.

[3] = system: chronic ocular hypertension; experiment: Effects on chronic ocular hypertension of rabbits (dexamethasone model); type: in vivo; conditions: within 24 hours, puerarin hydrate 1% (W/V), betaxolol 0.5% (W/V), monohydrate
Method: Chronic Ocular Hypertension Models: 32 rabbits, half male and half female, were subjected to sub-conjunctive injection with 0.5 mg of dexamethasone under corneal limbus, once every other day, for consecutive 3 weeks, to obtain chronic ocular hypertension models, then randomly divided into physiological saline group, betaxolol group [0.5% (W/V)], puerarin hydrate group [1% (W/V)]. The maximum decrease of intraocular pressure was measured within 24 hours.

[4] = Hygroscopicity test according to the Pharmacopoeia of the People's Republic of China; type: physicochemical; conditions: 48 h, 25° C., relative humidity 75%; monohydrate
Method: as §1

[5] = listed as The present invention drug
[6] = listed as the present invention drug

SMILES: O=c1c(-c2ccc(O)cc2)coc2c([C@@H]3O[C@H](CO)[C@@H](O)[C@H](O)[C@H]3O)c(O)ccc12 [Sample 1, puerarin monohydrate]
- Marked content (%) (Long-term stability test; sampling time 0 month): 99.5%
- Property (Long-term stability test; sampling time 0 month): off-white powder
- Related substance (%) (Long-term stability test; sampling time 0 month): <2%
- Marked content (%) (Long-term stability test; sampling time 3 month): 99.6%
- Property (Long-term stability test; sampling time 3 month): off-white powder
- Related substance (%) (Long-term stability test; sampling time 3 month): <2%
- Marked content (%) (Long-term stability test; sampling time 6 month): 99.5%
- Property (Long-term stability test; sampling time 6 month): off-white powder
- Related substance (%) (Long-term stability test; sampling time 6 month): <2%
- Marked content (%) (Long-term stability test; sampling time 9 month): 99.4%
- Property (Long-term stability test; sampling time 9 month): off-white powder
- Related substance (%) (Long-term stability test; sampling time 9 month): <2%
- Marked content (%) (Long-term stability test; sampling time 12 month): 99.4%
- Property (Long-term stability test; sampling time 12 month): off-white powder
- Related substance (%) (Long-term stability test; sampling time 12 month): <2%
- MDA in brain tissue [1, 5]: 2.54 ± 0.57 nmol/mL
- NO in brain tissue [1, 5]: 26 ± 6.13 µmol/L
- NOS in brain tissue [1, 5]: 23 ± 5.22 U/ml
- SOD in brain tissue [1, 5]: 243 ± 19.66 U/ml
- MDA in brain tissue [1, 6]: significantly decreased
- NO in brain tissue [1, 6]: significantly decreased
- NOS in brain tissue [1, 6]: decreased
- SOD in brain tissue [1, 6]: increased significantly
- Marked content (%) ([2]; sampling time 0 month): 99.5%
- Property ([2]; sampling time 0 month): off-white powder
- Related substance (%) ([2]; sampling time 0 month): <2%
- Marked content (%) ([2]; sampling time 1 month): 99.3%
- Property ([2]; sampling time 1 month): off-white powder
- Related substance (%) ([2]; sampling time 1 month): <2%
- Marked content (%) ([2]; sampling time 2 month): 99.6%
- Property ([2]; sampling time 2 month): off-white powder
- Related substance (%) ([2]; sampling time 2 month): <2%
- Marked content (%) ([2]; sampling time 3 month): 99.4%
- Property ([2]; sampling time 3 month): off-white powder
- Related substance (%) ([2]; sampling time 3 month): <2%
- Marked content (%) ([2]; sampling time 6 month): 99.3%
- Property ([2]; sampling time 6 month): off-white powder
- Related substance (%) ([2]; sampling time 6 month): <2%
- Maximum decrease of intraocular pressure (mmHg) [3]: 2.6 mmHg
- In comparison with 0 h, weight gain, % [4]: 0.12%
